Data taken from publication PMC6140548 (Oncoimmunology, 2018).

Biological target: HLA-A02:01 (MHC-I) on the surface of TAP-deficient T2 cells (Homo sapiens, UniProt P04439, D140Y/D185E/D98H/E176V/E277Q/G131W/G231S/I119V/I121R/I166T/I218V/L300P/L318F/N151K/N90K/P208A/P217A/Q86G/Q94H/R138H/R169H/T345S)
Experiment: Peptide binding assay using TAP deficient T2 cells
Assay type: cell-based
Settings: PAX7-encoded 9-mer; statement of the discussion

affinity for HLA-A02:01 (in words): very high affinity
Sequence: GLVSSISRV
